# Key:
# [1] = Stability on standing at room temperature; type: physicochemical; details: allowed to stand at room temperature
# [2] = test system: morning glory (variety: Murasaki); assay: Bud formation promotion activity on morning glory; type: in vivo; details: sprayed at 100 μM; treatment in dark 14 h or 15 h; buds measured on day 14 under continuous light at 25° C.; N=8 plants; compared with water (FIG. 1)
# Procedure: 9 g of morning glory (variety: Murasaki) seeds were treated with concentrated sulfuric acid for 20 minutes followed by allowing to stand overnight in running water. Next, the seeds were allowed to take root by allowing to stand for 24 hours on wet sea sand with the omphalos portion of the seed facing upward. The seeds that had taken root were planted to a depth of about 1.5 cm to 2.0 cm in sea sand and cultured under continuous light (for about 5 days).
# All of the morning glory plants that foliated as a result of this culturing were transferred to a culture broth (containing KNO3 (250 mg), NH4NO3 (250 mg), KH2PO4 (250 mg), MgSO4.7H2O (250 mg), MnSO4.4H2O (1 mg), Fe-citrate-n-hydrate (6 mg), H3BO3 (2 mg), CuSO4.5H2O (0.1 mg), ZeSO4.7H2O (0.2 mg), Na2MoO4.2H2O (0.2 mg) and Ca(H2PO4)2.2H2O (250 mg) in 1000 mL of distilled water).
# 0.10 μM and 100 μM aqueous solutions of the present ketol fatty acid derivative obtained in the aforementioned Example 1 were sprayed onto this culture system and subjected to treatment in dark for 14 hours or 15 hours. Following this treatment in dark, water or the present ketol fatty acid derivative was sprayed again followed by growing the plants under continuous light for 14 days at 25° C. and measuring the buds that formed on day 14. […]
stability (loss of activity) [1],SMILES,increase in number of buds that formed [2]
losing activity in a few days,CC/C=C\C/C=C\CC(=O)C(O)CCCCCCCC(=O)O (stereo not drawn) [α-ketol unsaturated fatty acid],–
–,CC/C=C\CC1CC1CC(=O)C(O)CCCCCCCC(=O)O (centres unmarked),more than 200%

# Source: US8519173B2, “Plant growth regulator” (Shiseido Company, Ltd., priority 2009, dated 2013)
